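Results reflect a 48-hour exposure of cells in 96-well plates to compound at five concentrations. TGI: total growth inhibition.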
Legend:
Assay in all cases: DTP human tumour cell line panel, 48 h
[1] = system: SK-MEL-5 melanoma
[2] = system: MOLT-4 leukemia
[3] = system: 786-0 renal
[4] = system: SF-539 CNS
[5] = system: A498 renal
[6] = system: MDA-N
[7] = system: HT29 colon
[8] = system: SNB-19 CNS
[9] = system: RPMI-8226 leukemia
[10] = system: RXF 393 renal
[11] = system: PC-3 prostate
[12] = system: MDA-MB-231 breast
[13] = system: U251 CNS
[14] = system: HCC-2998 colon
[15] = system: K-562 leukemia
[16] = system: SNB-75 CNS
[17] = system: HOP-92 NSCLC
[18] = system: MDA-MB-435
[19] = system: SR leukemia
[20] = system: MCF7 breast
[21] = system: UO-31 renal
[22] = system: OVCAR-5 ovarian
[23] = system: OVCAR-8 ovarian
[24] = system: NCI-H460 lung
[25] = system: ACHN renal
[26] = system: A549 NSCLC
[27] = system: T-47D breast
[28] = system: NCI-H522 lung
[29] = system: OVCAR-3 ovarian
[30] = system: BT-549 breast
[31] = system: UACC-257 melanoma
[32] = system: DU-145 prostate
[33] = system: SN12C renal
[34] = system: CAKI-1 renal
[35] = system: HOP-62 NSCLC
[36] = system: OVCAR-4 ovarian
[37] = system: NCI-H226 lung
[38] = system: IGROV1 ovarian
[39] = system: NCI/ADR-RES ovarian
[40] = system: M14 melanoma
[41] = system: SF-295 CNS
[42] = system: SK-MEL-2 melanoma
[43] = system: SF-268 CNS
[44] = system: KM12 colon
[45] = system: TK-10 renal
[46] = system: UACC-62 melanoma
[47] = system: COLO 205 colon
[48] = system: LOX IMVI melanoma
[49] = system: HCT-15 colon
[50] = system: SK-OV-3 ovarian
[51] = system: EKVX NSCLC
[52] = system: SW-620 colon
[53] = system: NCI-H23 lung
[54] = system: HS 578T breast
[55] = system: HCT-116 colon
[56] = system: SK-MEL-28 melanoma
[57] = system: CCRF-CEM leukemia

Measured: TGI

CC(=O)/C(=C/N1CCNC1=S)C(=O)Nc1ccccc1C
> 100 µM: all assays above

From PubChem BioAssay (NCI)
